According to ChEMBL document CHEMBL1201862, “PubChem BioAssay data set” (2004):
“And” between values parts separate entries of the source, which are not always exact repeats. Equal values may be shown once. The source made the active and inactive calls.

Key:
Cytochrome P450 2D6 = Cytochrome P450 2D6 (Homo sapiens, UniProt P10635);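 note: CYP2D6 member of a cytochrome P450 panel assay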
Cytochrome P450 1A2 = biological target: T1, Cytochrome P450 1A2 (Homo sapiens, UniProt P05177);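 note: PubChem cytochrome P450 panel assay, CYP1A2 panel member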
T1 sequence (P05177 whole entry): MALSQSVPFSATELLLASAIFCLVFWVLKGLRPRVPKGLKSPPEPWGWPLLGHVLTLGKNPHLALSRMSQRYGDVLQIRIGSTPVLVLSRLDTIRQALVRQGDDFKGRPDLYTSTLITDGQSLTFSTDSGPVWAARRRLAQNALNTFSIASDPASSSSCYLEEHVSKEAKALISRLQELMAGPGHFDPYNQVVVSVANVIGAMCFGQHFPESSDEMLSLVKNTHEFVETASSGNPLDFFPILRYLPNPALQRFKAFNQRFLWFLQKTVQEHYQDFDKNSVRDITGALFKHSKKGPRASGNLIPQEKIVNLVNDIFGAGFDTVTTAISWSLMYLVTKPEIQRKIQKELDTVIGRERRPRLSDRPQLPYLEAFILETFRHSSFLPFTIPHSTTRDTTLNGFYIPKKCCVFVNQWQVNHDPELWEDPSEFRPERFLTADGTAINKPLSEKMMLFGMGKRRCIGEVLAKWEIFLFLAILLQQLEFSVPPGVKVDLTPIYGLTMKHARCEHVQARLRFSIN

[1] = HEp-2 cell cytotoxicity, dose response, cytotoxicity control for RSV inhibitor project, HTS (AID 2410); assay type: functional; conditions: human respiratory syncytial virus
[2] = inhibitors of intracellular T. cruzi replication, confirmation, NIH3T3 host cells, beta-gal luminescence (AID 2044); assay type: functional, cell-based;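 note: intracellular parasites grown in NIH/3T3 mouse fibroblasts as host cells; luminescent beta-galactosidase reporter signal from transgenic T. cruzi replicating inside host cells; inhibitors lower the luminescence signal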
[3] = cytotoxicity toward NIH3T3 fibroblasts, dose response, counter-screen, cell-based, ATP luminescence, mouse fibroblasts (AID 2010); assay type: functional;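 note: cells exposed to compound for about 90 hours before reading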
Cytochrome P450 3A4 = Cytochrome P450 3A4 (Homo sapiens, UniProt P08684);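 note: CYP3A4 tested as one member of a cytochrome P450 panel screen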
Cytochrome P450 3A4, sequence (P08684 whole entry): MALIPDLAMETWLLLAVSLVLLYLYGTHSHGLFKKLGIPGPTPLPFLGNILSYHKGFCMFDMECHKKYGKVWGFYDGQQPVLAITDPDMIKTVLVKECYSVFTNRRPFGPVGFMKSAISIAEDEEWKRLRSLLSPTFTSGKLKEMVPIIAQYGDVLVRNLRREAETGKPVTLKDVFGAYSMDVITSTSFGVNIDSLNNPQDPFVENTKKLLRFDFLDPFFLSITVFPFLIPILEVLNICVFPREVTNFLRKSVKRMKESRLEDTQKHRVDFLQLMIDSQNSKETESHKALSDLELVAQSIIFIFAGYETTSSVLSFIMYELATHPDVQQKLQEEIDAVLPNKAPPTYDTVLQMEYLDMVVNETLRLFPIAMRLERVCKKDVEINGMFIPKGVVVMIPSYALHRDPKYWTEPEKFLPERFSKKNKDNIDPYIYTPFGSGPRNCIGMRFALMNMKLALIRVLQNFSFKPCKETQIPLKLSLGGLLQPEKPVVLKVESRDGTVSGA

Cytochrome P450 2C9 = Cytochrome P450 2C9 (Homo sapiens, UniProt P11712)
Cytochrome P450 2C9, sequence (P11712 whole entry): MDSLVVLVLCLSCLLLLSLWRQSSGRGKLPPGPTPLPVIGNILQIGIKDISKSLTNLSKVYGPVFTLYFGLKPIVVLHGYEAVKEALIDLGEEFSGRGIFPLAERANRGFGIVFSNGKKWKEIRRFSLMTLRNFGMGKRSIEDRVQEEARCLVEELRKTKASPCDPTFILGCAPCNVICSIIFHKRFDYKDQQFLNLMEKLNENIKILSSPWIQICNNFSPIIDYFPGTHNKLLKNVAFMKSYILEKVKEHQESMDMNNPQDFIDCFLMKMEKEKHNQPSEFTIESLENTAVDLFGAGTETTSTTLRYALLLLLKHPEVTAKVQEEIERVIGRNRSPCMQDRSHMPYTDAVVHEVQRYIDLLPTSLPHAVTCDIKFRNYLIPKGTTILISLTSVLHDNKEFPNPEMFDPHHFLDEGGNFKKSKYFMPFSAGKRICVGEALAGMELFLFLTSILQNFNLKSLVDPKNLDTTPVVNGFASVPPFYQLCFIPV

Cytochrome P450 2D6, sequence (P10635 whole entry): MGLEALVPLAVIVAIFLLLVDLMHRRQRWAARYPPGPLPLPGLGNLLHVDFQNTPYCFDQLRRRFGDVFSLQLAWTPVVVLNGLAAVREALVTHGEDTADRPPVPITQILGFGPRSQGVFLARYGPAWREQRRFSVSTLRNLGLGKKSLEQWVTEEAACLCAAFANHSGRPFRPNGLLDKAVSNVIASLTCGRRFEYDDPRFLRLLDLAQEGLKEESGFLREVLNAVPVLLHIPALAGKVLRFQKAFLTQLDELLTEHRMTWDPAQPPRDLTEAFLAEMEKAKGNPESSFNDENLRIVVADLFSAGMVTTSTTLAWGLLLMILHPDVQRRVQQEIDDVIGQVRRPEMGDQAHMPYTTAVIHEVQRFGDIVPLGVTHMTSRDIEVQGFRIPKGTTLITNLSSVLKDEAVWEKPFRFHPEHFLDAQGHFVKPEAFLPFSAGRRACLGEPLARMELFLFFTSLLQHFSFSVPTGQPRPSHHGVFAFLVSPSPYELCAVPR

CCN(CC)CCOC(=O)[C@@H](Cc1cccc2ccccc12)C[C@@H]1CCCO1 [NAFTIDROFURYL]
AC50 (Cytochrome P450 2D6): 5.01 µM (inconclusive) | AC50 (Cytochrome P450 1A2): 10 µM (inconclusive)

O=C(O)[C@H]([C@H]1NCCS1)N1C(=O)c2ccccc2C1=O
AC50 (Cytochrome P450 1A2): 5.01 µM (inconclusive)

Cc1ccc2ccc(S(=O)(=O)NCc3ccco3)cc2c1
CC50 [1]: 29.2 µM (active)

CCOC(=O)c1oc2ccc(CNC3CCCCC3)c(Cl)c2c1C
EC50 [2]: 1.73 µM (active) | EC50 [3]: > 60 µM (not active)

CCCC[C@@H]1C[C@H]1C(NC(=O)c1cccnc1)c1ccc(-c2ccccc2)cc1 (stereo partly specified)
AC50 (Cytochrome P450 3A4): 0.794 µM (inconclusive)

FC(F)(F)c1ccccc1-c1nccc(NCc2ccccc2)n1
AC50 (Cytochrome P450 2C9): 1 µM (inconclusive) | AC50 (Cytochrome P450 3A4): 31.6 µM (inconclusive) | AC50 (Cytochrome P450 2D6): 25.1 µM (inconclusive)

COc1cccc(CNC(=O)C2CCN(S(=O)(=O)N3CCCCC3)CC2)c1
AC50 (Cytochrome P450 2C9): 11.2 µM (inconclusive)

CCCS(=O)(=O)N1CCN(Cc2ccc3c(c2)c2ccccc2n3CC)CC1
CC50 [1]: 20.4 µM (active)

CC1=NN=C(c2ccc(N)cc2)c2cc3c(cc2C1)OCO3 [GYKI-52466]
AC50 (Cytochrome P450 2D6): 25.1 µM (inconclusive) and 31.6 µM (inconclusive) | AC50 (Cytochrome P450 1A2): 31.6 µM (inconclusive)

Cn1c(=O)c(-c2ccc(F)cc2)nc2cncnc21
AC50 (Cytochrome P450 3A4): 7.94 µM (inconclusive)

Clc1ccccc1CSc1cc2c(nn1)-c1ccccc1CC2
CC50 [1]: 22.9 µM (active)

Cc1sc2ccccc2c1CC1=NCCN1 [METIZOLINE]
AC50 (Cytochrome P450 2D6): 31.6 µM (inconclusive)

Cc1ccc(CN(Cc2cccnc2)C(S)=Nc2cc(Cl)ccc2C)cc1
EC50 [2]: 1.61 µM (active) | EC50 [3]: > 60 µM (not active)

COc1ccc(C(=O)C2CCCN(Cc3cnc(N4CCCC4)s3)C2)cc1OC (stereo unspecified)
EC50 [2]: 0.26 µM (active) | EC50 [3]: > 30 µM (not active)

O=C(Cc1sc(Nc2ccccc2)nc1-c1ccccc1)NCc1ccccc1
CC50 [1]: 11.2 µM (active)

Cc1ccc(S(=O)(=O)N2CCC(=O)N(C(COCc3ccc(Cl)cc3Cl)Cc3ccccc3)CC2)cc1 (stereo unspecified)
EC50 [2]: 1.58 µM (active) | EC50 [3]: 34.1 µM (active)

c1ccc(Nc2nc(-c3ccccc3)nc3ccccc23)cc1
CC50 [1]: 24.8 µM (active)

NC(=O)C1CCN(C(=O)C(=O)c2cn(CC(=O)N3CCCCCC3)c3ccccc23)CC1
EC50 [2]: 1.32 µM (active) | EC50 [3]: > 60 µM (not active)

COC(=O)CC[C@@H](C)[C@H]1CC[C@H]2[C@H]3CC[C@H]4C[C@@H]5CC[C@@]4(C)C3(O5)[C@@H](Br)[C@@H](Br)[C@@]12C
AC50 (Cytochrome P450 3A4): 3.98 µM (inconclusive)

Cc1ccc(C2=NN(S(C)(=O)=O)C(c3cccs3)C2)cc1 (stereo unspecified)
AC50 (Cytochrome P450 2D6): 14.1 µM (inconclusive) | AC50 (Cytochrome P450 1A2): 31.6 µM (inconclusive)

Cc1ccc(-n2c(SCc3ccc([N+](=O)[O-])cc3)nc3ccccc3c2=O)cc1
AC50 (Cytochrome P450 2C9): 0.0891 µM (inconclusive) | AC50 (Cytochrome P450 3A4): 11.2 µM (inconclusive)

S[C@@H]1CCCN(Cc2ccccc2)C1
AC50 (Cytochrome P450 3A4): 3.98 µM (inconclusive)

C[C@@H]1CC[C@H]2C(=O)NC[C@@H](O)CN2[C@@H]1c1ccc(Br)cc1
AC50 (Cytochrome P450 2C9): 5.01 µM (inconclusive) | AC50 (Cytochrome P450 3A4): 3.98 µM (inconclusive) | AC50 (Cytochrome P450 2D6): 3.16 µM (inconclusive)

O=C(/C=C/c1cccc([N+](=O)[O-])c1)NCCSCc1ccccc1Cl
CC50 [1]: 25.4 µM (active)

COc1ccc(CCN(C)CC(=O)Nc2c(C)cc(C)cc2C)cc1OC
EC50 [2]: 0.592 µM (active) | EC50 [3]: > 60 µM (not active)

CC(C)(C)c1ccc(C(=O)N2CCC(C(=O)NC3CCCCCC3)CC2)cc1
CC50 [1]: 42 µM (active)

CC(C)NC(=O)c1sc2nc3c(c(-c4cccs4)c2c1N)CN(C)CC3
EC50 [2]: 0.856 µM (active) | EC50 [3]: > 60 µM (inconclusive)

COCCn1c(=O)c(-c2ccc(F)cc2)nc2cncnc21
AC50 (Cytochrome P450 3A4): 12.6 µM (inconclusive)

Cc1nc(N2CCOCC2)nc(N2CCN(c3ccccc3)CC2)c1[N+](=O)[O-]
AC50 (Cytochrome P450 3A4): 3.55 µM (inconclusive)

COc1ccccc1CNc1ncnc2ccc(-c3ccccc3C#N)cc12
AC50 (Cytochrome P450 2C9): 0.631 µM (inconclusive) | AC50 (Cytochrome P450 2D6): 3.16 µM (inconclusive)

CCOC(=O)C1=C2SCC(=O)N2C(N)=C(C#N)C1
AC50 (Cytochrome P450 2C9): 20 µM (inconclusive) | AC50 (Cytochrome P450 2D6): 11.2 µM (inconclusive)

CC(C)N1CCN(Cc2ccc(-c3ccccc3Cl)o2)CC1CCO (stereo unspecified)
EC50 [2]: 1.61 µM (active) | EC50 [3]: > 60 µM (inconclusive)

COc1ccc(CCNc2cc(C)nc3c(-c4ccccc4)cnn23)cc1OC
CC50 [1]: 43.2 µM (active)
